Assays:
[1] = target: T1, hTRPC5 (Homo sapiens, UniProt Q9UL62); test: TRPC5 agonist activity assay (FLIPR calcium fluorescence); format: cell-based; conditions: Table 2, agonist activity on TRPC5 channels
T1 construct: expressed in transfected cells; host or cells: HEK-293
T1 sequence (Q9UL62 1-973): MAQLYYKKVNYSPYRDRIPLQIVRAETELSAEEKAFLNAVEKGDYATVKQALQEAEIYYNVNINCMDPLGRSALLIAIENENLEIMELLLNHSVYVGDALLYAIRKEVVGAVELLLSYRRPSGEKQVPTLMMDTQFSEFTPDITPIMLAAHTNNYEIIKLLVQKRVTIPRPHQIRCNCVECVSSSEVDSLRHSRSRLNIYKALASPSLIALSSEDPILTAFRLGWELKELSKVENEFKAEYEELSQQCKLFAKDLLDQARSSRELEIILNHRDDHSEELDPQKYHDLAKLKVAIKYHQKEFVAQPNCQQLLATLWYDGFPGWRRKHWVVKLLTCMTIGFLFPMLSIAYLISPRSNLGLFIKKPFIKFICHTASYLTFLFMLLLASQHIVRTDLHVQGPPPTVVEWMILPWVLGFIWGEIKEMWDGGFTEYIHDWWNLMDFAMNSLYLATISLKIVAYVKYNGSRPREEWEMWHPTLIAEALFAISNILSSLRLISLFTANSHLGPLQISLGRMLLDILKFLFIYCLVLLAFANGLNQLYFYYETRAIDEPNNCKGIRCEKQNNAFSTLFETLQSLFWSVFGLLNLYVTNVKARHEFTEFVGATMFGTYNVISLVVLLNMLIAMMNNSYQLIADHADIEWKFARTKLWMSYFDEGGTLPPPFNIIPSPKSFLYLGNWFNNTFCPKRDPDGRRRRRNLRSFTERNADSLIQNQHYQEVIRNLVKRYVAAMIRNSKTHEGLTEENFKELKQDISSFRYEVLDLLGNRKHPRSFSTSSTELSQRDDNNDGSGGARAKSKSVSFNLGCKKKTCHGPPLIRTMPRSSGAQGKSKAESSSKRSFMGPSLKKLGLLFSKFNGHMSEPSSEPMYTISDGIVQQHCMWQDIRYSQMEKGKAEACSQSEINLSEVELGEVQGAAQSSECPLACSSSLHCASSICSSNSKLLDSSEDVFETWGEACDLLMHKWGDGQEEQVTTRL
Procedure: HEK-293 cells expressing hTRPC5 were seeded into PDL-coated black-walled 96-well plates, with 2×10^4 cells per well. After 8 hours of culture, the original culture medium was discarded, and 60 µL of 4 µM Fluo-4/AM dye was added immediately. The cells were incubated at 37 °C for 60 minutes, and then rinsed with calcium flow detection buffer 5 times. The cell plates were placed in FLIPR®TETRA (Molecular Devices, Sunnyvale, CA, USA) preheated at 30 °C, excited at a wavelength of 488 nm, and the fluorescence signals were continuously recorded in the range of 515-535 nm with a sampling frequency of 1 s. After recording for 360 seconds, solvent control and test compounds were added, and the fluorescence signal was collected for another 600 seconds. The fluorescence signal of the trajectory diagram is represented by F/F0, wherein F is the fluorescence signal at different time points, and F0 is the basic fluorescence signal, that is, the average value of the fluorescence signal at the first 10 time points. The dose-effect diagram first took F/F0 =1 as the baseline. The area under the curve of the change in fluorescence intensity after adding test compound was calculated. IC50 value was calculated using log[agonist] vs. response - Variable slope, taking into account the area under the curve and the log value of the concentration of the compound.

[2] = Liver microsome stability test, human; conditions: for Stability Evaluation / MF %: Human liver microsomes; for MF %: metabolic bioavailability
[3] = Liver microsome stability test, mouse; format: in vitro ADME; conditions: Mouse liver microsomes; for MF %: metabolic bioavailability
Description: Calculation of Intrinsic Clearance: Clint = (1000 × slope)/(P); [formula]

[4] = Preliminary pharmacokinetic evaluation, plasma drug concentration after oral administration to mice; format: in vivo, ICR mice; conditions: male, ICR, mouse, oral 10 mg/kg, Mean ± SD, N = 3
Procedure: The test compound was prepared according to the following solvent: an aqueous solution of DMSO/Tween 80/0.5% (m/v) CMC-Na at a ratio of 2:2:96 (v/v/v), with a drug concentration of 1 mg/mL. Then, the test compound was gavaged to mice at a dosage of 10 mL/kg, with a dose of 10 mg/kg. Each compound was administered to 3 mice. At 1h and 4h after administration, about 50 µL of blood was collected from the orbital venous plexus of the mouse and placed in a centrifuge tube containing EDTA-K2 anticoagulant.

[5] = target: T1, hTRPC5; test: TRPC5 inhibitory activity assay (FLIPR calcium fluorescence, Englerin A stimulation); format: cell-based; conditions: Table 1, TRPC5 channels, HEK-293 cells expressing hTRPC5; read-out: FLIPR IC50
Procedure: HEK-293 cells expressing hTRPC3, hTRPC4 or hTRPC5 were seeded into black-bottomed 96-well plates coated with poly-lysine (PDL), with 2×10^4 cells per well. After 8 h of culture, the original culture medium was discarded, and 60 µL of Fluo-4/AM dye with a final concentration of 4 µM was added. The plates were incubated at 37 °C for 60 min, and then rinsed five times with calcium flow detection buffer. […] Then, the agonist Englerin A (EA) (MedChemExpress, Shanghai, China, final concentration of 0.3nM) was added, and the fluorescence signal was collected for 600 seconds. The fluorescence signal of the trajectory diagram is represented by F/F0, wherein F is the fluorescence signal at different time points, and F0 is the basic fluorescence signal, that is, the average value of the fluorescence signal at the first 10 time points. […] The area under the curve of the change in fluorescence intensity after adding EA was calculated. IC50 value was calculated using log[Inhibitor] vs. response - Variable slope, taking into account the area under the curve and the log value of the concentration of the compound.

Cn1c(=O)n(CCCO)c(=O)c2c1cc(C1CCC(c3ccccc3)CC1)n2Cc1ccc(Cl)cc1 (centres unmarked) [Example E5, 5-(4-chlorobenzyl)-3-(3-hydroxypropyl)-1-methyl-6-(4-phenylcyclohexyl)-1,5-dihydro-2H-pyrrolo[3,2-d]pyrimidine-2,4(3H)-dione]
EC50 [1]: 141 nM

CC(C)OC1CCC(c2nc3c(c(=O)n(CCCO)c(=O)n3C)n2Cc2ccc(Cl)cc2)CC1 (centres unmarked) [Example E7, 7-(4-chlorobenzyl)-1-(3-hydroxypropyl)-8-(4-isopropoxycyclohexyl)-3-methyl-3,7-dihydro-1H-purine-2,6-dione]
EC50 [1]: 36.1 nM

CC(C)n1c(=O)n(CCCO)c(=O)c2c1nc(C1CC1C1CC1)n2Cc1ccc(Cl)cc1 (centres unmarked) [Example E14, 8-([1,1'-bis(cyclopropan)]-2-yl)-7-(4-chlorobenzyl)-1-(3-hydroxypropyl)-3-isopropyl-3,7-dihydro-1H-purine-2,6-dione]
EC50 [1]: 105 nM

Cn1c(=O)n(CCCO)c(=O)c2c1nc(C1(F)CC(c3ccccc3)C1)n2Cc1ccc(Cl)cc1 (centres unmarked) [Example E17, 7-(4-chlorobenzyl)-8-(1-fluoro-3-phenylcyclobutyl)-1-(3-hydroxypropyl)-3-methyl-3,7-dihydro-1H-purine-2,6-dione]
EC50 [1]: 242 nM

CC(C)OC1CCC(F)(c2nc3c(c(=O)n(CCCO)c(=O)n3C)n2Cc2ccc(Cl)cc2)CC1 (centres unmarked) [Example E19, 7-(4-chlorobenzyl)-8-(1-fluoro-4-isopropoxycyclohexyl)-1-(3-hydroxypropyl)-3-methyl-3,7-dihydro-1H-purine-2,6-dione]
EC50 [1]: 74.5 nM

COC1(c2nc3c(c(=O)n(CCCO)c(=O)n3C)n2Cc2ccc(Cl)cc2)CCC(C)(C)CC1 [Example E26, 7-(4-chlorobenzyl)-1-(3-hydroxypropyl)-8-(1-methoxy-4,4-dimethylcyclohexyl)-3-methyl-3,7-dihydro-1H-purine-2,6-dione]
EC50 [1]: 100 to 200 nM

CC(C)C1CCC(F)(c2nc3c(c(=O)n(CCCO)c(=O)n3C)n2Cc2ccc(Cl)cc2)CC1 (centres unmarked) [Example E31, 7-(4-chlorobenzyl)-8-(1-fluoro-4-isopropylcyclohexyl)-1-(3-hydroxypropyl)-3-methyl-3,7-dihydro-1H-purine-2,6-dione]
EC50 [1]: 102 nM

Cn1c(=O)n(CCCO)c(=O)c2c1nc(C1=CCC(F)(F)CC1)n2Cc1ccc(Cl)cc1 [Example E37, 7-(4-chlorobenzyl)-8-(4,4-difluorocyclohex-1-en-1-yl)-1-(3-hydroxypropyl)-3-methyl-3,7-dihydro-1H-purine-2,6-dione]
EC50 [1]: 100 to 200 nM

Cn1c(=O)n(CCCO)c(=O)c2c1nc(C1(F)CCC(F)(F)CC1)n2Cc1ccc(Cl)cc1 [Example E38, 7-(4-chlorobenzyl)-1-(3-hydroxypropyl)-3-methyl-8-(1,4,4-trifluorocyclohexyl)-3,7-dihydro-1H-purine-2,6-dione]
Stability Evaluation [2]: Medium (30%<MF%<70%, medium metabolic stability) | MF % [2]: 50.5% | Stability Evaluation [3]: Medium (30%<MF%<70%, medium metabolic stability) | MF % [3]: 42.1%

Cn1c(=O)n(CCCO)c(=O)c2c1nc(C1(F)CCC(F)(F)CC1)n2Cc1ccc(F)cc1 [Example E45, 7-(4-fluorobenzyl)-1-(3-hydroxypropyl)-3-methyl-8-(1,4,4-trifluorocyclohexyl)-3,7-dihydro-1H-purine-2,6-dione]
Stability Evaluation [2]: Medium (30%<MF%<70%, medium metabolic stability) | MF % [2]: 67.0% | Stability Evaluation [3]: Medium (30%<MF%<70%, medium metabolic stability) | MF % [3]: 59.1%

CC(C)n1c(=O)n(CCCO)c(=O)c2c1nc(C1(F)CCC(F)(F)CC1)n2Cc1ccc(F)cc1 [Example E46, 7-(4-fluorobenzyl)-1-(3-hydroxypropyl)-3-isopropyl-8-(1,4,4-trifluorocyclohexyl)-3,7-dihydro-1H-purine-2,6-dione]
concentration at 1 h [4]: 1170 ± 410 ng/mL | concentration at 4 h [4]: 576 ± 117 ng/mL

Cn1c(=O)n(CCCO)c(=O)c2c1nc(C1(F)CCC(c3ccccc3)CC1)n2Cc1ccc(Cl)cc1 (centres unmarked) [Example E54, 7-(4-chlorobenzyl)-8-(1-fluoro-4-phenylcyclohexyl)-1-(3-hydroxypropyl)-3-methyl-3,7-dihydro-1H-purine-2,6-dione]
EC50 [1]: 170 nM

Cn1c(=O)n(CCCO)c(=O)c2c1nc(C1(F)CCC(F)(F)CC1)n2Cc1cc(F)cc(F)c1 [Example E61, 7-(3,5-difluorobenzyl)-1-(3-hydroxypropyl)-3-methyl-8-(1,4,4-trifluorocyclohexyl)-3,7-dihydro-1H-purine-2,6-dione]
Stability Evaluation [2]: Better (MF% >70%, better metabolic stability) | MF % [2]: 77.4%

Cn1c(=O)n(CCCO)c(=O)c2c1nc(C1(F)CCC(C(F)(F)F)CC1)n2Cc1ccccc1 (centres unmarked) [Example E63, 7-benzyl-8-(1-fluoro-4-(trifluoromethyl)cyclohexyl)-1-(3-hydroxypropyl)-3-methyl-3,7-dihydro-1H-purine-2,6-dione]
IC50 [5]: 0.86 nM | concentration at 1 h [4]: 2800 ± 860 ng/mL | concentration at 4 h [4]: 2060 ± 755 ng/mL | Stability Evaluation [2]: Better (MF% >70%, better metabolic stability) | MF % [2]: 74.4% | half-life at 1 µM ([2]; human, liver microsomes, pH 7.4): 5.18 h

Cn1c(=O)n(CCCO)c(=O)c2c1nc(C1(F)CCC(F)(F)CC1)n2Cc1ccc(F)cc1F [Example E64, 7-(2,4-difluorobenzyl)-1-(3-hydroxypropyl)-3-methyl-8-(1,4,4-trifluorocyclohexyl)-3,7-dihydro-1H-purine-2,6-dione]
Stability Evaluation [2]: Better (MF% >70%, better metabolic stability) | MF % [2]: 72.5% | Stability Evaluation [3]: Medium (30%<MF%<70%, medium metabolic stability) | MF % [3]: 56.4%

Cn1c(=O)n(CCCO)c(=O)c2c1nc(C1(F)CCC(F)(F)CC1)n2Cc1ccc(Cl)cc1F [Example E70, 7-(4-chloro-2-fluorobenzyl)-1-(3-hydroxypropyl)-3-methyl-8-(1,4,4-trifluorocyclohexyl)-3,7-dihydro-1H-purine-2,6-dione]
concentration at 1 h [4]: 1260 ± 167 ng/mL | concentration at 4 h [4]: 1200 ± 110 ng/mL

Cn1c(=O)n(CCCO)c(=O)c2c1nc(C1(F)CCC(F)(F)CC1)n2Cc1ccc(C#N)cc1 [Example E72, 4-((1-(3-hydroxypropyl)-3-methyl-2,6-dioxo-8-(1,4,4-trifluorocyclohexyl)-1,2,3,6-tetrahydro-7H-purin-7-yl)methyl)benzonitrile]
Stability Evaluation [2]: Medium (30%<MF%<70%, medium metabolic stability) | MF % [2]: 66.7%

Source: patent EP4663640A1 (Shanghai Institute of Materia Medica, Chinese Academy of …, priority 2023, dated 2024)
